Assay results from BindingDB's records for PubMed 30125720 (Southern Medical University, 2018).

Assay: Inhibition of TGF-beta (unknown origin)
O=c1[nH]cc(-c2cccc(CO)c2)cc1-c1nc2cc(N3CCNCC3)ccc2[nH]1 gave an IC50 of 970 nM. In the case of CC(=O)Nc1cc(Nc2nc(-c3ccc(F)c(C)n3)nc3[nH]cnc23)ccn1, the IC50 is reported as 0.34 nM. With CCc1cnn(-c2cccc(C)n2)c1-c1cc2cnccc2s1 [US9090625, 4] the IC50 was 4.3 nM.
